The source of these data is ChEMBL document CHEMBL1287668, “Synthesis, antioxidant and toxicological study of novel pyrimido quinoline derivatives from 4-hydroxy-3-acyl quinolin-2-one” (Bioorg Med Chem Lett, 2010).

Each structure is given as a SMILES string.

Data set [1] is described as follows: Antioxidant activity assessed as EDTA chelating effect after 10 mins by spectrophotometric analysis. It counts as functional.
For data set [2], the system named is Radical scavenging activity. The experiment in a line: Antioxidant activity assessed as DPPH free radical scavenging activity after 30 mins by spectrophotometric analysis. The data set is classed as functional. (Loss of DPPH colour is used to gauge radical scavenging.)
Data set [3] is described as follows: Antioxidant activity assessed as super oxide scavenging activity after 150 mins by spectrophotometric analysis. It counts as functional. Also on record: concentration or dose not given beside the values.
Data set [4] can be described thus: Antioxidant activity assessed as total reducing activity after 30 mins by spectrophotometric analysis. It counts as functional.
Data set [5] is described as follows: Antioxidant activity assessed as nitric oxide scavenging activity after 150 mins by spectrophotometric analysis. The data set is classed as functional. Set-up: concentration or dose not given beside the values.
Data set [6] in a line: Antioxidant activity assessed as ferric ion reducing ability by spectrophotometric analysis. It counts as functional.
Data set [7] has as its system Rattus norvegicus. The experiment in a line: Toxicity in Wistar rat assessed as pupil dilatation at 200 mg/kg, po measured after 24 hrs. The data set is classed as organism-based. Set-up: dose 200 mg/kg, route oral. Particulars: in vivo.
For data set [8], the system named is Rattus norvegicus. The experiment in a line: Toxicity in Wistar rat fed 4 hrs post dosing assessed as incidence of adverse effects at 2 mg/kg, po administered as single dose measured on day one. Also on record: dose 2 mg/kg, route oral. The data set is classed as organism-based. Particulars: in vivo.
The nature of data set [9]: Toxicity in po dosed Wistar rat. It counts as organism-based. As to conditions: in vivo.
For data set [10], the system named is Rattus norvegicus. The data set is described as follows: Toxicity in Wistar rat assessed as incidence of tremor at 200 mg/kg, po measured after 24 hrs. Particulars: in vivo. Set-up: dose 200 mg/kg, route oral. The data set is classed as organism-based.
Data set [11] deals with Rattus norvegicus. The experiment in a line: Toxicity in Wistar rat fed 4 hrs post dosing assessed as incidence of adverse effects at 2 mg/kg, po administered as single dose measured on day 14. The data set is classed as organism-based. Set-up: dose 2 mg/kg, route oral. As to conditions: in vivo.
Data set [12] relates to Rattus norvegicus. The data set is described as follows: Toxicity in Wistar rat assessed as incidence of convulsion at 200 mg/kg, po measured after 24 hrs. As to conditions: in vivo. It counts as organism-based. Also on record: dose 200 mg/kg, route oral.
The test system of data set [13] is Rattus norvegicus. The data set is described as follows: Toxicity in Wistar rat assessed as grip strength at 200 mg/kg, po measured after 24 hrs. It counts as organism-based. Also on record: dose 200 mg/kg, route oral. As to conditions: in vivo.

On to `COc1ccc(O)c(C(C)(C)C)c1.COc1ccc(O)cc1C(C)(C)C`, for which the Activity in data set [1] was 16.1 mg; in [2], 170 µg; in [3] it was 76.5%; in data set [4], 8050 µmol; in [5] it was 79.1%.

As to `Cc1[nH]nc2c1c(=O)[nH]c1ccccc12`, the Activity was 10.4 mg in [1]; 1110 µg in data set [2]; 8.7% in data set [3]; 150 mmol in data set [6]; 1230 µmol in [4]; 18.5% in [5].

As to `Cc1cc(C(C)(C)C)c(O)c(C(C)(C)C)c1`, the Activity stood at 13.2 mg in data set [1]; 150 µg in data set [2]; 87.1% in data set [3]; 134 mmol in data set [6]; 13100 µmol in data set [4]; 92.1% in data set [5].

In the case of `Cc1nc(=O)[nH]c2c1c(=O)[nH]c1ccccc12`, the Activity entry was “Toxic” in the data set with Rattus norvegicus [7]; 10.7 mg in [1]; 1410 µg in data set [2]; “Non-toxic” in the data set on Rattus norvegicus [8]; 38% in [3]; 205 mmol in data set [6]. For the same compound, the Activity was 3880 µmol in data set [4]; 62.3% in [5]; “Toxic” in the data set with Rattus norvegicus [10]; “Non-toxic” in the data set with Rattus norvegicus [11]; “Toxic” in the data set on Rattus norvegicus [12]; “Toxic” with Rattus norvegicus [13]. In addition, the MTD in data set [9] was 2000 mg/kg.

Take `CC1=NNC(=O)Nc2c1c(=O)[nH]c1ccccc21`: the Activity in data set [1] turned out to be 12.3 mg; in data set [2] it was 540 µg; in data set [3], 40.9%; in data set [4], 2590 µmol; in data set [5] it was 16.1%.

For the compound `CC1=NNC(=S)Nc2c1c(=O)[nH]c1ccccc21`, the Activity result is “Toxic” in the data set with Rattus norvegicus [7]; 9.1 mg in data set [1]; 752 µg in [2]; “Non-toxic” in the data set on Rattus norvegicus [8]; 74.5% in [3]; 2650 µmol in [4]. For the same compound, the Activity in data set [5] was 61.6%; in the data set on Rattus norvegicus [10], “Toxic”; with Rattus norvegicus [11], “Non-toxic”; in the data set on Rattus norvegicus [12] it was “Toxic”; with Rattus norvegicus [13], “Toxic”. Also, in [9], the MTD is 2000 mg/kg.

For `Cc1nc(=S)[nH]c2c1c(=O)[nH]c1ccccc12`, the Activity in [1] was 9.6 mg; in [2], 1040 µg; in data set [3] it was 22.4%; in [6] it was 145 mmol; in data set [4], 3630 µmol; in data set [5] it was 12%.

As for `Cc1noc2c1c(=O)[nH]c1ccccc12`, the Activity worked out at 4.9 mg in [1]; 466 µg in data set [2]; 16.6% in data set [3]; 169 mmol in data set [6]; 4010 µmol in data set [4]; 40.3% in data set [5].
